{"source": "patent US6306876A", "about": "“4-[aryl(8-azabicyclo[3.2.1]octan-3-yl)]aminobenzoic acid derivatives” (priority 2000, dated 2001)", "target": "T1, delta-opioid receptor (Rattus norvegicus, UniProt P33533)", "T1 construct": "from tissue; host or cells: forebrain particulate (membrane) preparation of male Wistar rats (animals from Charles River, Kingston, N.Y.)", "T1 sequence (P33533 whole entry)": "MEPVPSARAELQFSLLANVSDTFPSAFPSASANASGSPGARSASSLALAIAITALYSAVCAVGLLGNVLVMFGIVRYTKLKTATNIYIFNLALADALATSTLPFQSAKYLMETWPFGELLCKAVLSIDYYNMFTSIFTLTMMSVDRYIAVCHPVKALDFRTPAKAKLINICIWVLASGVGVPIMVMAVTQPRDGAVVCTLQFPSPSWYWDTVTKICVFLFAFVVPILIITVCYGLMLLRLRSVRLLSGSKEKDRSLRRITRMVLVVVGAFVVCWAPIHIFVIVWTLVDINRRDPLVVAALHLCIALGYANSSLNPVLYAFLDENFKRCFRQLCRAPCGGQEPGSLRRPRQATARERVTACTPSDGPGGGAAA", "experiment": "Rat Brain Delta-Opioid Receptor Binding Assay", "parameters": "species or system rat (Wistar)", "conditions": "rat forebrain homogenate, [3H]DPDPE, 25° C., pH 7.4; read-out: Delta K", "data": [{"smiles": "CN1C2CCC1CC(N(c1ccccc1)c1cccc(C(=O)OC(C)(C)C)c1)C2", "note": "(stereo not drawn) [Example 38, 1,1-Dimethylethyl 3-[phenyl(endo-8-methyl-8-azabicyclo[3.2.1]octan-3-yl)amino]benzoate]", "values": [{"measurement": "Ki", "result": 0.459, "unit": "µM"}]}]}
